Experimental data published in patent publication US6352958B1, “Cycloimido-substituted benzofused heterocyclic herbicides” (FMC Corporation, priority 1997, dated 2002).

Columns and labels:
Type in all cases: in vivo
[1] = test system: soybean (Glycine max var. Winchester); assay: Preemergence herbicidal activity, soybean; details: Rate of Application 0.3 Kg/Ha, examined after 12-17 days
[2] = test system: wheat (Triticum aestivum var. Lew); assay: Preemergence herbicidal activity, wheat; details: Rate of Application 0.3 Kg/Ha, examined after 12-17 days
[3] = test system: field corn (Zea mays var. Pioneer 3732); assay: Preemergence herbicidal activity, corn; details: Rate of Application 0.3 Kg/Ha, examined after 12-17 days
[4] = test system: velvetleaf (Abutilon theophrasti); assay: Preemergence herbicidal activity, velvetleaf; details: Rate of Application 0.3 Kg/Ha, examined after 12-17 days
[5] = test system: morningglory (Ipomea lacunosa or Ipomea hederacea); assay: Preemergence herbicidal activity, morningglory; details: Rate of Application 0.3 Kg/Ha, examined after 12-17 days
[6] = test system: common chickweed (Stellaria media); assay: Preemergence herbicidal activity, chickweed; details: Rate of Application 0.3 Kg/Ha, examined after 12-17 days
[7] = test system: common cocklebur (Xanthium strumarium L.); assay: Preemergence herbicidal activity, cocklebur; details: Rate of Application 0.3 Kg/Ha, examined after 12-17 days
[8] = test system: blackgrass (Aloepecurus myosuroides); assay: Preemergence herbicidal activity, blackgrass; details: Rate of Application 0.3 Kg/Ha, examined after 12-17 days
[9] = test system: green foxtail (Setaria viridis); assay: Preemergence herbicidal activity, green foxtail; details: Rate of Application 0.3 Kg/Ha, examined after 12-17 days
[10] = test system: Johnsongrass (Sorghum halepense); assay: Preemergence herbicidal activity, johnsongrass; details: Rate of Application 0.3 Kg/Ha, examined after 12-17 days
[11] = test system: soybean (Glycine max var. Winchester); assay: Postemergence herbicidal activity, soybean; details: rate of application 0.3 Kg/Ha, rated after 12-17 days
[12] = test system: wheat (Triticum aestivum var. Lew); assay: Postemergence herbicidal activity, wheat; details: rate of application 0.3 Kg/Ha, rated after 12-17 days
[13] = test system: field corn (Zea mays var. Pioneer 3732); assay: Postemergence herbicidal activity, corn; details: rate of application 0.3 Kg/Ha, rated after 12-17 days
[14] = test system: velvetleaf (Abutilon theophrasti); assay: Postemergence herbicidal activity, velvetleaf; details: rate of application 0.3 Kg/Ha, rated after 12-17 days
[15] = test system: morningglory (Ipomea lacunosa or Ipomea hederacea); assay: Postemergence herbicidal activity, morningglory; details: rate of application 0.3 Kg/Ha, rated after 12-17 days
[16] = test system: common chickweed (Stellaria media); assay: Postemergence herbicidal activity, chickweed; details: rate of application 0.3 Kg/Ha, rated after 12-17 days
[17] = test system: blackgrass (Aloepecurus myosuroides); assay: Postemergence herbicidal activity, blackgrass; details: rate of application 0.3 Kg/Ha, rated after 12-17 days
[18] = test system: green foxtail (Setaria viridis); assay: Postemergence herbicidal activity, green foxtail; details: rate of application 0.3 Kg/Ha, rated after 12-17 days
[19] = test system: Johnsongrass (Sorghum halepense); assay: Postemergence herbicidal activity, johnsongrass; details: rate of application 0.3 Kg/Ha, rated after 12-17 days
[20] = test system: common cocklebur (Xanthium strumarium L.); assay: Postemergence herbicidal activity, cocklebur; details: rate of application 0.3 Kg/Ha, rated after 12-17 days

| SMILES | PREEMERGENCE HERBICIDAL ACTIVITY (% CONTROL) SOY [1] [%] | PREEMERGENCE HERBICIDAL ACTIVITY (% CONTROL) WHT [2] [%] | PREEMERGENCE HERBICIDAL ACTIVITY (% CONTROL) CRN [3] [%] | PREEMERGENCE HERBICIDAL ACTIVITY (% CONTROL) ABUTH [4] [%] | PREEMERGENCE HERBICIDAL ACTIVITY (% CONTROL) IPOSS [5] [%] | PREEMERGENCE HERBICIDAL ACTIVITY (% CONTROL) STEME [6] [%] | PREEMERGENCE HERBICIDAL ACTIVITY (% CONTROL) XANPE [7] [%] | PREEMERGENCE HERBICIDAL ACTIVITY (% CONTROL) ALOMY [8] [%] | PREEMERGENCE HERBICIDAL ACTIVITY (% CONTROL) SETVI [9] [%] | PREEMERGENCE HERBICIDAL ACTIVITY (% CONTROL) SORHA [10] [%] | Postemergence herbicidal activity (% control) SOY [11] [%] | Postemergence herbicidal activity (% control) WHT [12] [%] | Postemergence herbicidal activity (% control) CRN [13] [%] | Postemergence herbicidal activity (% control) ABUTH [14] [%] | Postemergence herbicidal activity (% control) IPOSS [15] [%] | Postemergence herbicidal activity (% control) STEME [16] [%] | Postemergence herbicidal activity (% control) ALOMY [17] [%] | Postemergence herbicidal activity (% control) SETVI [18] [%] | Postemergence herbicidal activity (% control) SORHA [19] [%] | also measured |
| --- | --- | --- | --- | --- | --- | --- | --- | --- | --- | --- | --- | --- | --- | --- | --- | --- | --- | --- | --- | --- |
| C=C(C)c1cc2c(Cl)cc(F)c(-n3c(=O)cc(C(F)(F)F)n(C)c3=O)c2o1 [Compound 231] | 100 | 80 | 100 | 100 | 100 | 100 | 100 | 90 | 100 | 100 | 100 | 70 | 100 | 100 | 100 | 100 | 100 | 100 | 100 |  |
| Cn1c(C(F)(F)F)cc(=O)n(-c2c(F)cc(Cl)c3[nH]cnc23)c1=O [Compound 362] | 100 | 100 | 100 | 100 | 100 | 100 | 100 | 100 | 100 | 100 | 100 | 100 | 100 | 100 | 100 | 100 | 100 | 100 | 100 |  |
| CC(OC(=O)NCc1ccccc1)c1cc2c(Cl)cc(F)c(-n3c(=O)cc(C(F)(F)F)n(C)c3=O)c2o1 (stereo not shown) [Compound 250] | 80 | 40 | 50 | 100 | 100 |  | 100 | 60 | 100 | 70 | 95 | 50 | 80 | 100 | 100 | 80 | 40 | 100 | 100 | Postemergence herbicidal activity (% control) XANPE [20]: 100% |
| Cn1c(C(F)(F)F)cc(=O)n(-c2c(F)cc(Cl)c3[nH]c(C(F)(F)F)nc23)c1=O [Compound 365, 3-(4-CHLORO-6-FLUORO-2-TRIFLUOROMETHYLBENZIMIDAZOL-7-YL)-1-METHYL-6-TRIFLUOROMETHYL-2,4(1H,3H)-PYRIMIDINEDIONE] |  |  |  |  |  |  |  |  |  |  |  |  |  |  |  |  |  |  |  | inhibition at 300 g/ha ([2]; Triticum aestivum, pre-emergence, read-out: PREEMERGENCE HERBICIDAL ACTIVITY (% CONTROL) WHT): 30%; inhibition at 300 g/ha ([3]; Zea mays, pre-emergence, read-out: PREEMERGENCE HERBICIDAL ACTIVITY (% CONTROL) CRN): 30%; inhibition at 300 g/ha ([4]; Abutilon theophrasti, pre-emergence, read-out: PREEMERGENCE HERBICIDAL ACTIVITY (% CONTROL) ABUTH): 100%; inhibition at 300 g/ha ([5]; Ipomoea, pre-emergence, read-out: PREEMERGENCE HERBICIDAL ACTIVITY (% CONTROL) IPOSS): 100%; inhibition at 300 g/ha ([6]; Stellaria media, pre-emergence, read-out: PREEMERGENCE HERBICIDAL ACTIVITY (% CONTROL) STEME): 100%; inhibition at 300 g/ha ([7]; Xanthium strumarium, pre-emergence, read-out: PREEMERGENCE HERBICIDAL ACTIVITY (% CONTROL) XANPE): 100%; inhibition at 300 g/ha ([8]; Alopecurus myosuroides, pre-emergence, read-out: PREEMERGENCE HERBICIDAL ACTIVITY (% CONTROL) ALOMY): 60%; inhibition at 300 g/ha ([9]; Setaria viridis, pre-emergence, read-out: PREEMERGENCE HERBICIDAL ACTIVITY (% CONTROL) SETVI): 75%; inhibition at 300 g/ha ([10]; Sorghum halepense, pre-emergence, read-out: PREEMERGENCE HERBICIDAL ACTIVITY (% CONTROL) SORHA): 60%; inhibition at 300 g/ha ([11]; Glycine max, post-emergence, read-out: Postemergence herbicidal activity (% control) SOY): 100%; inhibition at 300 g/ha ([12]; Triticum aestivum, post-emergence, read-out: Postemergence herbicidal activity (% control) WHT): 40%; inhibition at 300 g/ha ([13]; Zea mays, post-emergence, read-out: Postemergence herbicidal activity (% control) CRN): 70%; inhibition at 300 g/ha ([14]; Abutilon theophrasti, post-emergence, read-out: Postemergence herbicidal activity (% control) ABUTH): 100%; inhibition at 300 g/ha ([15]; Ipomoea, post-emergence, read-out: Postemergence herbicidal activity (% control) IPOSS): 100%; inhibition at 300 g/ha ([16]; Stellaria media, post-emergence, read-out: Postemergence herbicidal activity (% control) STEME): 100%; inhibition at 300 g/ha ([17]; Alopecurus myosuroides, post-emergence, read-out: Postemergence herbicidal activity (% control) ALOMY): 70%; inhibition at 300 g/ha ([18]; Setaria viridis, post-emergence, read-out: Postemergence herbicidal activity (% control) SETVI): 80%; inhibition at 300 g/ha ([19]; Sorghum halepense, post-emergence, read-out: Postemergence herbicidal activity (% control) SORHA): 30% |
| CC(C)Oc1nc2c(-n3c(=O)cc(C(F)(F)F)n(C)c3=O)c(F)cc(Br)c2o1 [Compound 107] | 80 | 60 | 90 | 100 | 100 | 100 | 40 | 75 | 100 | 100 | 95 | 40 | 100 | 100 | 100 | 100 | 90 | 100 | 100 |  |
